{"source": "patent US20140039803A1", "about": "“Method for Rapid Identification of Drug Targets and Drug Mechanisms of Action in Human Cells” (THE ROCKEFELLER UNIVERSITY, priority 2011, published 2014)", "key": {"[1]": {"system": "HCT-116 cells (parental)", "assay": "Cell proliferation assay (WST1), LD50", "format": "cell-based, human"}, "[2]": {"system": "BI-2536-resistant clones of HCT-116 cells", "assay": "Cell proliferation assay (WST1), LD50", "format": "cell-based, human"}, "[3]": {"system": "HCT-116 cells", "assay": "Spindle phenotype with BI-2536 treatment", "format": "cell-based, human"}, "[4]": {"system": "BI-2536-resistant clones of HCT-116 cells", "assay": "Spindle phenotype with BI-2536 treatment", "format": "cell-based, human"}, "[5]": {"target": "PLK2 (Homo sapiens, UniProt Q9NYY3)", "sequence (Q9NYY3 whole entry, species assumed)": "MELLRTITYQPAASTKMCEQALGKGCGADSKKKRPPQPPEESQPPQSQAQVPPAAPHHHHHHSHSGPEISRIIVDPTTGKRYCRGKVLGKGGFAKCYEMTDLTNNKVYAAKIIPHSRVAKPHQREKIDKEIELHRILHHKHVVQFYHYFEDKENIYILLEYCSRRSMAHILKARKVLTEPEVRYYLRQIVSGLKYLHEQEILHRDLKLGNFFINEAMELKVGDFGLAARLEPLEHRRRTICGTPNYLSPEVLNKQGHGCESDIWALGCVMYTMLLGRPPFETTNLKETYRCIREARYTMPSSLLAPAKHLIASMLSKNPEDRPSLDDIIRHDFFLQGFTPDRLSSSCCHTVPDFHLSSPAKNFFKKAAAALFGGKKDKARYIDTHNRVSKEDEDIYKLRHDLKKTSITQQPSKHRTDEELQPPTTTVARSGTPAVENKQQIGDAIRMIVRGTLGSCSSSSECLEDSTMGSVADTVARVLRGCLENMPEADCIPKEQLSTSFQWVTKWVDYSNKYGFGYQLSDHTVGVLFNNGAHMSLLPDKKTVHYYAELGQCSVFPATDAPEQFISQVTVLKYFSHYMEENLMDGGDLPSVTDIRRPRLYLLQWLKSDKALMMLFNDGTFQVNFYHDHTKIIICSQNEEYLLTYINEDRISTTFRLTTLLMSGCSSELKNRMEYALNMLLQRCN", "conditions": "cited from earlier work"}, "[6]": {"target": "PLK3 (Homo sapiens, UniProt Q9H4B4)", "sequence (Q9H4B4 whole entry)": "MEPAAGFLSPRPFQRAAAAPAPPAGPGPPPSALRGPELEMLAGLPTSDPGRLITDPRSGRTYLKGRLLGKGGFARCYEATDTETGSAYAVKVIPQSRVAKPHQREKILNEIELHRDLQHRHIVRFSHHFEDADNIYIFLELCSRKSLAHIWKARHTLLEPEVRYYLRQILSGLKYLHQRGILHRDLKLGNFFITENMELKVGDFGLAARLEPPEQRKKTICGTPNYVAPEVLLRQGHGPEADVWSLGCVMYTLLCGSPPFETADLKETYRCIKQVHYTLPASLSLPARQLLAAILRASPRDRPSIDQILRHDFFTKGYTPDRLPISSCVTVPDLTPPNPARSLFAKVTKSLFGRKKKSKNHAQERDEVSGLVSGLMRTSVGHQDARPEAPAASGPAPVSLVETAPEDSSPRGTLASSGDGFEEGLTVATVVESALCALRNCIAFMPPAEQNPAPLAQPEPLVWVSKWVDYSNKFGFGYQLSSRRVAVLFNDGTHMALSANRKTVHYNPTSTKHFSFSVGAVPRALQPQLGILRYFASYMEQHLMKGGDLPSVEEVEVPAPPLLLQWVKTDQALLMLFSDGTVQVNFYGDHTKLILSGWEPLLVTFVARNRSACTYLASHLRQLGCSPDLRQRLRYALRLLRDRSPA", "conditions": "cited from earlier work"}, "[7]": {"system": "related motor proteins", "conditions": "in vitro; cited from earlier work"}, "[8]": {"system": "hTERT-RPE1 cells stably expressing GFP-PSMB5 wild type or mutants", "assay": "Proliferation assay, bortezomib treatment", "format": "cell-based, human", "conditions": "stable expression of GFP-tagged PSMB5 mutants"}, "[9]": {"system": "bortezomib-resistant clones of HCT-116 cells", "conditions": "for LD50: Table 4, mean ± s.e.m., n = 3"}}, "note": "“And” between values parts separate entries of the source, which are not always exact repeats. Equal entries are not always repeated. Where two headings read alike, the source gives them in different places.", "data": [{"smiles": "CC[C@@H]1C(=O)N(C)c2cnc(Nc3ccc(C(=O)NC4CCN(C)CC4)cc3OC)nc2N1C1CCCC1", "note": "[BI-2536]", "values": [{"measurement": "LD50", "setting": "[1]; Example 1, Table 1, parental HCT-116, mean ± s.d.", "result": "3.9 nM and 3.9 ± 1.0 nM"}, {"measurement": "LD50", "setting": "[1]; Example 2, Table 3, parental HCT-116, n = 3, mean ± s.d.", "result": "3.9 nM and 3.9 ± 2.8 nM"}, {"measurement": "LD50", "setting": "[2]; Example 1, Table 1, clone A, mean ± s.d.", "result": "24.7 ± 5.9", "unit": "nM"}, {"measurement": "LD50", "setting": "[2]; Example 1, Table 1, clone B, mean ± s.d.", "result": "22.9 ± 5.3", "unit": "nM"}, {"measurement": "LD50", "setting": "[2]; Example 1, Table 1, clone C, mean ± s.d.", "result": "12.6 ± 2.6", "unit": "nM"}, {"measurement": "LD50", "setting": "[2]; Example 1, Table 1, clone D, mean ± s.d.", "result": "27.6 ± 2.4", "unit": "nM"}, {"measurement": "LD50", "setting": "[2]; Example 1, Table 1, clone E, mean ± s.d.", "result": "35.9 ± 9.9", "unit": "nM"}, {"measurement": "LD50", "setting": "[2]; Example 1, Table 1, clone F, mean ± s.d.", "result": "33.4 ± 7.5", "unit": "nM"}, {"measurement": "LD50", "setting": "[2]; Example 2, Table 3, clone A, n = 3, mean ± s.d.", "result": "34.9 ± 13.0", "unit": "nM"}, {"measurement": "LD50", "setting": "[2]; Example 2, Table 3, clone B, n = 3, mean ± s.d.", "result": "33.5 ± 2.6", "unit": "nM"}, {"measurement": "LD50", "setting": "[2]; Example 2, Table 3, clone C, n = 3, mean ± s.d.", "result": "27.2 ± 8.6", "unit": "nM"}, {"measurement": "LD50", "setting": "[2]; Example 2, Table 3, clone D, n = 3, mean ± s.d.", "result": "14.2 ± 7.8", "unit": "nM"}, {"measurement": "LD50", "setting": "[2]; Example 2, Table 3, clone E, n = 3, mean ± s.d.", "result": "21.1 ± 5.7", "unit": "nM"}, {"measurement": "LD50", "setting": "[2]; Example 2, Table 3, clone F, n = 3, mean ± s.d.", "result": "27.5 ± 13.3", "unit": "nM"}, {"measurement": "normal bipolar spindles", "setting": "[3]", "result": "11±3", "unit": "%"}, {"measurement": "bipolar spindles", "setting": "[4]; BI-2536 treatment, drug-resistant clone B", "result": "46±4", "unit": "%"}, {"measurement": "reduction in bipolar spindles associated with BI-2536 treatment", "setting": "[4]; Example 1: clones A, B and C", "result": "suppressed"}, {"measurement": "activity in vitro", "setting": "[5]", "result": "active"}, {"measurement": "activity in vitro", "setting": "[6]", "result": "active"}]}, {"smiles": "c1ccc(C2(c3nc(-c4ccncc4)cs3)CC2)cc1", "note": "[PCTP, 4-(2-(1-phenylcyclopropyl)thiazol-4-yl)pyridine]", "values": [{"measurement": "selectivity over related motor proteins", "setting": "[7]", "result": "inhibit other related motor proteins"}]}, {"smiles": "N[C@@H](CSC(c1ccccc1)(c1ccccc1)c1ccccc1)C(=O)O", "note": "[STLC, S-trityl-L-cysteine]", "values": [{"measurement": "selectivity over related motor proteins", "setting": "[7]", "result": "selective"}]}, {"smiles": "CC(C)C[C@H](NC(=O)[C@H](Cc1ccccc1)NC(=O)c1cnccn1)B(O)O", "note": "[bortezomib]", "values": [{"measurement": "LD50", "setting": "[1]; Example 3, Table 4, parental HCT-116, mean ± s.e.m., n = 3", "result": "6.3 ± 0.9", "unit": "nM"}, {"measurement": "LD50", "setting": "[1]; HCT-116 cells, text of Example 3", "result": "6.3±0.9", "unit": "nm"}, {"measurement": "effect of expression of PSMB5 M104V or A108T on bortezomib sensitivity", "setting": "[8]", "result": "suppressed bortezomib sensitivity"}, {"measurement": "LD50", "setting": "[9]; clone A", "result": "19.4 ± 6.7", "unit": "nM"}, {"measurement": "LD50", "setting": "[9]; clone B", "result": "15.3 ± 6.2", "unit": "nM"}, {"measurement": "LD50", "setting": "[9]; clone C", "result": "17.8 ± 6.0", "unit": "nM"}, {"measurement": "LD50", "setting": "[9]; clone D", "result": "17.2 ± 5.4", "unit": "nM"}, {"measurement": "LD50", "setting": "[9]; clone E", "result": "41.5 ± 9.5", "unit": "nM"}, {"measurement": "LD50 of resistant clones relative to parental cell line", "setting": "[9]; five clones with reduced bortezomib sensitivity, fold higher", "result": "2.4-6.5 fold"}]}, {"smiles": "CC(=O)O[C@H]1C(=O)[C@@]2(C)[C@H]([C@H](OC(=O)c3ccccc3)[C@]3(O)C[C@H](OC(=O)[C@H](O)[C@@H](NC(=O)c4ccccc4)c4ccccc4)C(C)=C1C3(C)C)[C@]1(OC(C)=O)CO[C@@H]1C[C@@H]2O", "note": "[taxol]", "values": [{"measurement": "sensitivity of clones compared with parental cell line", "setting": "[2]; Example 1: clones A, B and C", "result": "less sensitive than the parental cell line"}, {"measurement": "sensitivity of clones compared with parental cell line", "setting": "[2]; Example 2: clones D, E and F, 20 nM (FIG. 11)", "result": "less sensitive than the parental cell line"}]}]}
